According to patent US11220500B2, “Crystalline form of Valbenazine dibesylate” (Apotex Inc., priority 2018, dated 2022):
Values after ≈ are worked out from the molar mass of the structure shown. Where a name gives a salt, the structure may show the parent alone. Read-outs that look alike come from different tables or passages of the source.

What was measured:
physchem = conditions: 37 °C, thermodynamic from solid, Solubility expressed as Valbenazine free base
Protocol: (§1) The solubility of Valbenazine free base, Valbenazine ditosylate and Valbenazine dibesylate were measured in buffer solutions (pH 1.2 to 6.8) in a temperature-controlled water bath at 37° C. with stirring using magnetic stir bars at 325 rpm (rotations per minute). Each Valbenazine sample was weighed and transferred into a 20 mL vial and then 10 mL of buffer was added. The samples were shaken for 1 minute. If all sample dissolved, more sample was added until a saturated solution was obtained. The samples were then equilibrated at 37° C. with stirring using magnetic stir bars at 325 rpm for 24 hours. After equilibration, samples were filtered through 0.45 μm PVDF filters and further diluted with a methanol/water (60/40 v/v) solution. Samples were analyzed by HPLC against known concentrations of standards. The pH values of the solutions were measured after completion of testing.

[1] = 24 h
Protocol: as §1

[2] = Form stability by PXRD of uncapped samples in a 27° C./60% RH stability chamber; format: physicochemical
Protocol: Valbenazine dibesylate Form APO-I can be characterized by a PXRD diffractogram comprising, among other peaks, characteristic peaks, expressed in degrees 2θ (±0.2°), at 6.3°, 9.8° and 15.6°. Preferably, the PXRD diffractogram further comprises at least three peaks, expressed in degrees 2θ (±0.2°), selected from the group consisting of 5.3°, 7.7°, 8.5°, 12.5°, 14.0°, 16.8°, 17.1°, 17.8°, 18.6° and 19.7°. More preferably, the PXRD diffractogram further comprises peaks, expressed in degrees 2θ (±0.2°), at 5.3°, 7.7°, 8.5°, 12.5°, 14.0°, 16.8°, 17.1°, 17.8°, 18.6° and 19.7°.
Data were acquired on a PANanalytical X'Pert Pro MPD diffractometer with fixed divergence slits and an X'Celerator detector. The diffractometer was configured in Bragg-Brentano geometry; data was collected over a 2θ range of 3° to 40° using CuKα radiation at a power of 40 mA and 45 kV. CuKβ radiation was removed using a divergent beam nickel filter. A step size of 0.017°, and a step time of 40 seconds, was used. Raw data were evaluated using X'Pert High Score Plus. Samples were rotated to reduce preferred orientation effects. Samples were lightly ground prior to analysis.

[3] = Comparative solubility of Valbenazine forms in buffer solutions (pH 1.2 to 6.8) at 37° C., HPLC; conditions: equilibrated 24 hours
Protocol: as §1

Row | solubility at 24 h (physchem; pH 1.2, simulated gastric fluid) [mg/mL] | Solubility expressed as Valbenazine free base ([1]; pH 4.5) [mg/mL] | Solubility expressed as Valbenazine free base ([1]; pH 6.8) [mg/mL] | Form stability ([2]; open exposure to 27° C./60% RH for at least 5 months) | Change in the crystalline form (PXRD) ([2]; uncapped samples, 27° C./60% RH stability chamber, at least 20 weeks) | solubility at 24 h (physchem; pH 4.5, aqueous buffer) [mg/mL] | Difference of aqueous solubility from that of Valbenazine ditosylate of the approved drug product [1] [% units] | Solubility expressed as Valbenazine free base ([1]; pH 1.2) [mg/mL] | Solubility expressed as Valbenazine free base ([3]; buffer pH 1.2, 37° C.) [mg/mL] | Solubility expressed as Valbenazine free base ([3]; buffer pH 4.5, 37° C.) [mg/mL] | Solubility expressed as Valbenazine free base ([3]; buffer pH 6.8, 37° C.) [mg/mL] | Compound
1 | 21.3 (≈ 50.9 mM) | 21.6 (≈ 51.6 mM) | 1.2 (≈ 2.87 mM) |  |  |  |  |  |  |  |  | COc1cc2c(cc1OC)[C@H]1C[C@@H](OC(=O)[C@@H](N)C(C)C)[C@H](CC(C)C)CN1CC2 [Free base, (2R,3R,11bR)-1,3,4,6,7,11b-hexahydro-9,10-dimethoxy-3-(2-methylpropyl)-2H-benzo[a]quinolizin-2-yl-L-valine ester]
2 |  |  | 8.1 | exhibits form stability | no change in the crystalline form | 18.5 | ≤ 10 | 22.4 |  |  |  | COc1cc2c(cc1OC)[C@H]1C[C@@H](OC(=O)[C@@H](N)C(C)C)[C@H](CC(C)C)CN1CC2 [Dibesylate salt, Valbenazine dibesylate]
3 |  |  |  |  |  |  |  |  | 20.9 | 17.7 | 7.6 | Valbenazine ditosylate [Ditosylate salt]
